Data reported in patent US12583884B2, “3beta-(benzyloxy)-17alpha-methyl-pregn-5-en-20-one for use in the treatment of cognitive disorders” (AELIS FARMA, priority 2018, dated 2026).

Legend:
[1] = test system: 19 to 22-month-old C57B1/6J mice; assay: Declarative/relational memory (radial maze flexibility test), aged mice; type: in vivo, mouse; settings: 0.6 μg/ml in drinking water, chance level 50%
Procedure: The relational memory task was performed using 8-arm radial mazes described in Example 3b. Food restriction and habituation procedures were performed as described in Example 3b. Acquisition began 24 h after the last habituation session. The acquisition stage consisted in learning the positions of the food pellets within the maze. […] One arm of each pair contained reward at its end, the other arm of each pair was not baited.
Acquisition is based on a go-no go procedure. The arms are presented one by one. Subjects are expected to visit the rewarded arms faster than the non-rewarded arms. At the beginning of each daily session, the mouse was placed at the center of the maze with no access to the arms. The doors of the first arm then opened. […] The door of an arm then open immediately after (0-sec inter-trial interval). […] Each daily session contained 40 successive arm presentations (i.e. trials) organized into two distinct temporal sequences. In the first sequence (20 trials), four arms of the maze were presented alternatively (two baited and two non-baited). Consecutively, the second sequence started (20 trials); the four other arms of the maze were presented alternatively (two baited and two non-baited). […]
At each trial, the latency to visit the arm is measured. […]
Flexibility of learning was evaluated in the following conditions. […]
The percentage of correct responses for each pair was measured. […]

[2] = test system: 85 receptors; assay: CEREP High-throughput binding profile (85 receptors), whole panel
Source text: (§1) The CEREP High-throughput profile consists of a broad collection of 80 transmembrane and soluble receptors, ion channels and G-Protein coupled receptors.

[3] = biological target: T1, mutant human CB1 receptor (hCB1p.E1.49G) (Homo sapiens, UniProt P21554, E133G); assay: THC-induced inhibition of cellular respiration in HEK-293-hCB1-Mut; type: cell-based; settings: 100 nM, THC 1 μM
T1 construct: expressed in transfected cells; host or cells: HEK-293 (transient)
Procedure: In a second study (FIG. 5B), HEK-293 cells were transiently transfected either with the wild-type hCB1-expressing plasmid (HEK-293-hCB1-WT) or with the mutant hCB1p.E1.49G-expressing plasmid (HEK-293-hCB1-Mut). In this mutant the glutamate amino acid at position 1.49 was substituted by a glycine. […] After 15 min of incubation, THC (0; 1 μM, dissolved in EtOH, 0.0034%) was added in the culture dishes for 30 minutes.
(§2) Cellular respiration was measured in a calibrated oxygraph equipped with a Clark electrode. Oxygen consumption (OC) rate was used to measure cellular respiration.

[4] = in vivo; settings: Ts65Dn and WT, mouse
Source text: At the end of the behavioral study, mice were sacrificed, blood and brain samples were collected.

[5] = biological target: T2, wild-type human CB1 receptor (Homo sapiens, UniProt P21554); assay: THC-induced inhibition of cellular respiration in HEK-293-hCB1-WT; type: cell-based; settings: THC 1 μM
T2 construct: expressed in transfected cells; host or cells: HEK-293 (transient)
Procedure: In a first study (FIG. 5A), HEK-293 cells were transiently transfected with the wild-type hCB1-expressing plasmid (HEK-293-hCB1-WT). […] After 15 min of incubation, THC (0; 1 μM, dissolved in EtOH, 0.0034%) was added in the culture dishes for 30 minutes.
as §2

[6] = Depressive-like behaviors in the sucrose preference test; type: in vivo, mouse
Procedure: Sucrose preference was tested in the home cages of the mice. A sucrose solution containing 2% of sucrose (D(+) saccharose) in tap water was poured in plastic graduated bottles (volume in each bottle, 45 ml). Identical bottles were filled with tap water. All the mice were first habituated to the bottles and to the sucrose solution. One bottle containing water and one bottle containing sucrose were placed in the hopper of each home cage. […] The mice had access to the solutions from the beginning of the dark phase, at the daily peak of food and water consumption (from 7 pm to 8.30 am). The sucrose preference test was performed seven days later. Water and sucrose solutions were presented as described for habituation except that mice had access to the solutions from 12 pm to 10 pm. At each time point, the bottles were weighed, 1 g corresponding to 1 ml. The intake volume was calculated by subtracting the initial bottle weight to the final bottle weight.
15 or 30 mg/kg or of vehicle (corn oil; 5 ml/kg) was studied in the sucrose preference test in 2-month-old male C57B1/6J mice (n=7-8 per group). Rimonabant was dissolved in a vehicle containing dimethylsulfoxide (DMSO, 2%), Tween80 (2%) in injectable NaCl 0.9%. Within the same study, the effect of repeated intraperitoneal injections of rimonabant at 10 mg/kg or of vehicle alone (10 ml/kg) was studied in the sucrose preference test in 2-month-old male C57B1/6J mice (n=8 per group).

[7] = biological target: T3, Vasoactive intestinal peptide PAC1-PACAP (Homo sapiens, UniProt P41586); assay: CEREP binding profile: PAC1
T3 construct: CEREP (contract panel)
Source text: as §1

T2 sequence (P21554 whole entry): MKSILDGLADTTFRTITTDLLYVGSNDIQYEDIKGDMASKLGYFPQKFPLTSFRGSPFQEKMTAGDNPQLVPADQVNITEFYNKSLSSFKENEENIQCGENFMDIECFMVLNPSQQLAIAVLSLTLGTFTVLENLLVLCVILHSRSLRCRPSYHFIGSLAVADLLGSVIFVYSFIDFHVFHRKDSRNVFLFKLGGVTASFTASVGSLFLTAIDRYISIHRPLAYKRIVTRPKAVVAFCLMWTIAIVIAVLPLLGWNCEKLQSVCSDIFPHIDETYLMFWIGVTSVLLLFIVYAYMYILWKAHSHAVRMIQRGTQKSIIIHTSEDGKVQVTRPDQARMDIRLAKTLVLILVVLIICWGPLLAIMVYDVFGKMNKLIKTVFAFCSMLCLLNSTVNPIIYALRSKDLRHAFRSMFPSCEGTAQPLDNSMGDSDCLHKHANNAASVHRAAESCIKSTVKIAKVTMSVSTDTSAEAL
T3 sequence (P41586 21-468): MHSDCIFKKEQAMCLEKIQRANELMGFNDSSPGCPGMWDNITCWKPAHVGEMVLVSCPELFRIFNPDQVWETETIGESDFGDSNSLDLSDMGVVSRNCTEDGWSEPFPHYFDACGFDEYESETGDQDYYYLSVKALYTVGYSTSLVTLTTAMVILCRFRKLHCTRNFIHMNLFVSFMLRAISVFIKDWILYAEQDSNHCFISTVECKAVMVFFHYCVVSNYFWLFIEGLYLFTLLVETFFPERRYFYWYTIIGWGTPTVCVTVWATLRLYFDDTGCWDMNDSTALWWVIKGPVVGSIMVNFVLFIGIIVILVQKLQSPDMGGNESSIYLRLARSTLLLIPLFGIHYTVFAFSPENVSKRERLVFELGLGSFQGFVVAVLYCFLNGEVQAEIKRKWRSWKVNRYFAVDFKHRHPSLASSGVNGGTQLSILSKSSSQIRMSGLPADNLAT
T1 sequence (P21554 whole entry E133G): as the sequence (P21554 whole entry) above, with E133G counted along it

Structure (SMILES) | Correct responses in the flexibility test (choice accuracy) [1] | Modification of the binding of the 85 receptors ([2]; 10 μM) | IC50 ([2]; CEREP High-throughput binding profile (85 receptors), read-out: ID50 (the source's name)) [µM] | Effect on THC-induced decrease in cellular respiration [3] | concentration at 1 month [4] [ng/mL] | ID100 ([5]; HEK-293-hCB1) [nM] | % Inhibition ([5]; HEK-293-hCB1, maximal inhibition of THC effect) [%] | Concentration with significant block of THC-induced inhibition of cellular respiration ([5]; tested 1, 2.5, 5, 50 and 100 nM, Tukey's test) [nM] | Sucrose intake ([6]; 0.05, 5, 15, 30 mg/kg per os once a day, 28 days) | Effect: increase in depression-related behaviors (repeated administration) ([6]; male mice, highest dose tested 30 mg/kg) | inhibition at 10 µM [7] [%]
CC(=O)[C@@]1(C)CC[C@H]2[C@@H]3CC=C4C[C@@H](OCc5ccccc5)CC[C@]4(C)[C@H]3CC[C@@]21C [3Bn17MeP, 3β-benzyloxy, 17α-methyl-pregn-5-en-20-one] | more than 70% | does not modify the binding of any of the 85 receptors | > 10 | insensitive | 1.3 | 50 | 100 | ≥ 2.5 | had no effect on sucrose intake | No | –
CC(=O)[C@H]1CC[C@H]2[C@@H]3CC=C4C[C@@H](O)CC[C@]4(C)[C@H]3CC[C@]12C [pregnenolone, reference compound] | – | – | – | – | – | – | – | – | – | – | -25
